Test results from US8691777B2, “Combination therapy” (Emory University, priority 2011, dated 2014).

What was measured:
[1] = tested on: tsc2ang1 cells; experiment: proliferation assay with tsc2ang1 cells (Coulter counter); assay type: cell-based, murine; conditions: rapamycin 5 nM, imatinib 10 μM, 24 hours, vs DMSO control
Experimental: 10^4 tsc2ang1 cells per well were plated in 24-well dishes in triplicate. The next day, fresh medium containing the compounds or vehicle controls was added. Cells were incubated at 37° C. Tsc2ang1 (ATCC CRL 2620) is a murine cell line derived from a cutaneous sarcoma that arose in the extremity of a mouse heterozygous for tsc2; these mice develop cutaneous sarcomas at a frequency of about 10 to 15%. The cells were cultured in complete DMEM medium supplemented with 10% FBS (Sigma Aldrich, St Louis, Mo.). […] Cells were treated with vehicle control (DMSO), rapamycin (5 nM), imatinib (10 μM) or imatinib (10 μM)+rapamycin (5 nM) (shown along X-axis) for 24 h and counted using a Coulter counter. The Y-axis represents cell number with error bars representing the SEM.

[2] = molecular target: PDGFR-β (Mus musculus, UniProt P05622); experiment: Western blot of PDGFR-β and phospho-PDGFR-β in Tsc2ang1 cells; conditions: imatinib 10 μm, rapamycin 10 nM, vs DMSO control
Experimental: The impact of imatinib (10 μm), rapamycin (10 nM), and a combination of rapamycin and imatinib on the phosphorylated PDGFR-β signaling pathway was tested in Tsc2ang1cells.
Lysates of Tsc2ang1 cells treated with vehicle or indicated drugs were prepared in NP-40 lysis buffer (1% NP-40, 150 mmol/L NaCl, 10% glycerol, 20 mmol/L HEPES, 1 mmol/L phenylmethylsulfonyl fluoride, 2.5 mmol/L EDTA, 100 μmol/L Na3VO4, and 1% aprotinin) Protein concentration in cleared lysates was determined using an Eppendorf BioPhotometer. Samples were resolved using SDS-PAGE (National Diagnostics) and transferred to nitrocellulose membranes. The membranes were blocked with 5% nonfat dry milk in 10 mmol/L Tris/0.1% Tween 20/100 mmol/L NaCl and incubated with primary antibodies followed by horseradish peroxidase-conjugated secondary antibody. The immunoreactive bands were visualized by enhanced chemiluminescence (Amersham Biosciences). The antibodies used were: Phospho-PDGFR-β antibody (Tyr 1021) (Cell signaling Laboratories); Phospho-PDGFR-β antibody (Tyr 1009) (Cell Signaling Laboratories); Aurora kinase A antibody (4718) (Cell signaling Laboratories), Aurorakinase B (3094) antibody (Cell signaling Laboratories) monoclonal anti-β-tubulin antibody (Sigma) was used as a loading control.

[3] = tested on: MMP-2; experiment: gelatin zymography of conditioned media of tsc2ang1 cells; assay type: cell-based, murine; conditions: 24 hours, vs DMSO-treated control
Experimental: The presence and activity of specific MMP species were detected using gelatin zymography. An aliquot of each conditioned media sample was centrifuged at 4,000 rpm for 1-5 min at 4° C. and supernatant was used. A buffer of 4% SDS, 0.15 mol/L Tris (pH 6.8), 20% glycerol and 0.5% (w/v) bromophenol blue was added to the conditioned media sample. […] Gels were then incubated over night at 37° C. in substrate buffer containing 50 mmol/L Tris-HCL (pH 8), 5 mmol/L CaCl2 and 0.02% NaN3. After incubation, gels were stained for 30 min in 0.5% Coomassie Blue R-250 dissolved in acetic acid, isopropyl alcohol and water (1:3:6); destained in acetic acid, ethanol and water (1:3:6). The finalized gel was scored for the presence/absence MMP activity by a blinded evaluator and photographed.

Sequence of PDGFR-β (P05622 32-1098): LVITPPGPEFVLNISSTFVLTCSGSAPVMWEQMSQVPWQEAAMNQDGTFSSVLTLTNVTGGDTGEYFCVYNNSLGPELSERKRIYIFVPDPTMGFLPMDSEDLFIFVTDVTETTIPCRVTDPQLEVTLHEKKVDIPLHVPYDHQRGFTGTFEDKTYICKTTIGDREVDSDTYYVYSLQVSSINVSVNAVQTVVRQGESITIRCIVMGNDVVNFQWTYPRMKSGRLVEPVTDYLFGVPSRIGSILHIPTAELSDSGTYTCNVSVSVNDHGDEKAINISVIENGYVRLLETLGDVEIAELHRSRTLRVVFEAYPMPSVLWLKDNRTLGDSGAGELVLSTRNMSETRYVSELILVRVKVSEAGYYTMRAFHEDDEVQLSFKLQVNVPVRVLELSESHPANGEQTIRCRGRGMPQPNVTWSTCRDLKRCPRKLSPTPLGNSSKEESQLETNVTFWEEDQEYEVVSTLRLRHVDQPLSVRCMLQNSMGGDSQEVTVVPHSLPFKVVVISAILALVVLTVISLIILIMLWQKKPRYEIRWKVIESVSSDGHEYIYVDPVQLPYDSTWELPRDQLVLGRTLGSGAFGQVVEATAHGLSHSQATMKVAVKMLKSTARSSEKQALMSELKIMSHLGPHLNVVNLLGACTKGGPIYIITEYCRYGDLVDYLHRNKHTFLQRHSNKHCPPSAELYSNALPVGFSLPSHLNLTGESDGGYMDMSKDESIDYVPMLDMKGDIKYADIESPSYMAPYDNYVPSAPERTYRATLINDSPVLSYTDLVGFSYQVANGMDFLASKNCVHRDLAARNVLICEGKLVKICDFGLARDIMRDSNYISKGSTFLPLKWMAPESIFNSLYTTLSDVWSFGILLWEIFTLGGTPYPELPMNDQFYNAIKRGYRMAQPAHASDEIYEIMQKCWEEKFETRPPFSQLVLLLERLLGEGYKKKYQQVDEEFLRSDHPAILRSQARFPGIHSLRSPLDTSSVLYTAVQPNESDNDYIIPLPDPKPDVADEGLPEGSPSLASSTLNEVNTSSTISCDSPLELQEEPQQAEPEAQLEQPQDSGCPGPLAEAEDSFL

For `Cc1ccc(NC(=O)c2ccc(CN3CCN(C)CC3)cc2)cc1Nc1nccc(-c2cccnc2)n1` [imatinib], the viable cell number [1] was “decrease in the viable cell numbers”, the “PDGFR β phosphorylation” value [2] was “downregulation of PDGFR β phosphorylation” and the MMP-2 gelatinase activity [3] was “decrease in the level of MMP-2”.
